# Data published in ChEMBL document CHEMBL1201862, “PubChem BioAssay data set” (2004).
# Activity calls are given as the source filed them.
# Columns and labels:
# [1] = blockers of bursicon-stimulated LGR2 cAMP reporter – cell-based, HEK293, CRE-luciferase reporter, cherry pick, set 2, dose response (AID 743343); format: functional;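 further: transfected cells were stimulated with diluted bursicon conditioned medium after compound addition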
# [2] = molecular target: T1, DNA repair protein RAD52 homolog (Homo sapiens, UniProt P43351); format: functional, biochemical
# T1 sequence (P43351 whole entry): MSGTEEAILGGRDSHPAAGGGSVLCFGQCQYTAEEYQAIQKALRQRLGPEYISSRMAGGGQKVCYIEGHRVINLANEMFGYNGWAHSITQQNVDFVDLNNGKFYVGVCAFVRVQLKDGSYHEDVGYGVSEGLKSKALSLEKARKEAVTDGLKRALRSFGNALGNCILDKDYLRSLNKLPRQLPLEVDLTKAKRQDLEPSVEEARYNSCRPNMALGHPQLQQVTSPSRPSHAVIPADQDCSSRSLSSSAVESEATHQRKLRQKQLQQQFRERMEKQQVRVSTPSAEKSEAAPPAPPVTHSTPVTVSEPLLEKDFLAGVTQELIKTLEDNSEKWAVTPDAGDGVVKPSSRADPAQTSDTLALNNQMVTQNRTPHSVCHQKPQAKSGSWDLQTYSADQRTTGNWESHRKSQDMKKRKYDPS
# [3] = viability loss in HEK293 cells – cell-based, plate reader, cherry-picked samples, cytotoxicity control, dose response (AID 743446); format: functional
# [4] = cytotoxicity toward MDA-MB-231 breast cancer cells – cell-based, CellTiter-Glo luminescence, cherry-pick, cytotoxicity control for RAD54 inhibitor project, dose response (AID 651692); format: functional
# [5] = molecular target: T2, Ubiquitin-conjugating enzyme E2 N (Homo sapiens, UniProt P61088); format: functional;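 further: Dose-response confirmation in a TR-FRET assay detecting UBC13-driven polyubiquitin chain formation, inhibition measured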
# T2 sequence (P61088 whole entry): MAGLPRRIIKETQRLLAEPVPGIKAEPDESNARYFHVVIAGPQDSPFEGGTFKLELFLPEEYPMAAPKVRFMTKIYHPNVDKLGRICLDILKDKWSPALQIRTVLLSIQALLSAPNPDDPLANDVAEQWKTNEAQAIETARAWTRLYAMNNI
# [6] = blockade of melanocortin 4 receptor signaling – cell-based, plate reader, cherry pick, counter-screen for LGR2 antagonist project, dose response (AID 743444); format: functional;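 further: transfected HEK 293 cells stimulated with alpha-MSH peptide; potency of inhibitors of the alpha-MSH evoked signal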
# [7] = molecular target: DNA repair and recombination protein RAD54-like (Homo sapiens, UniProt Q92698); test: RAD54 Holliday junction migration blockers – biochemical, fluorescence, cherry-picked samples, dose series, confirmation (AID 651657); format: functional
# [8] = A549 cell cytotoxicity, dose response, cytotoxicity control, plate reader, cherry-pick, antagonist series (AID 743412); format: functional, cell-based
# [9] = toxicity toward HepG2 liver cells – cell-based, plate reader, cherry-pick, antagonist series, cytotoxicity control, dose response (AID 743416); format: functional
# [10] = molecular target: T3, High affinity choline transporter 1 (Homo sapiens, UniProt Q9GZV3); test: human choline transporter blockers, potency – cell-based, 10-point CRC, membrane potential dye, dose response (AID 588401); format: functional;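 further: membrane potential dye fluorescence of choline-evoked depolarization via CHT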
# T3 sequence (Q9GZV3 whole entry): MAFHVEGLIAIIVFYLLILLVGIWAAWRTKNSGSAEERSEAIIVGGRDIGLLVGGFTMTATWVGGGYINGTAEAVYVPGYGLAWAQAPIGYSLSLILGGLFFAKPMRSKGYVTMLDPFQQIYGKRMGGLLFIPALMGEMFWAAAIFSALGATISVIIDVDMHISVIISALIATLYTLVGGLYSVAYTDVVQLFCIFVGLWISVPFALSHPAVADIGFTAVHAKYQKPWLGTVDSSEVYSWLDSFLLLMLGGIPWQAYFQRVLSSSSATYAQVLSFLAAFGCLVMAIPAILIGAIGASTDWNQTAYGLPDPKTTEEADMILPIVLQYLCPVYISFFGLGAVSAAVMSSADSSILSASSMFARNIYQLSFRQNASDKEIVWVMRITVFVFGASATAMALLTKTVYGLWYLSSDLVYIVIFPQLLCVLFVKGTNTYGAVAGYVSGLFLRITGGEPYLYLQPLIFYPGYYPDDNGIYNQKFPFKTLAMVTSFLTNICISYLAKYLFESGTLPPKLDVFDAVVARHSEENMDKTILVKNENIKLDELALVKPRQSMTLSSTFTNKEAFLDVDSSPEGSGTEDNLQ
# [11] = molecular target: T3, High affinity choline transporter 1; test: human choline transporter blockers, potency – cell-based, 5-point CRC, membrane potential dye, dose response (AID 504840); format: functional
# [12] = molecular target: T3, High affinity choline transporter 1; test: human choline transporter radiolabel uptake blockers – cell-based, 3H-choline uptake, CHT LV-AA trafficking mutant, CRC, dose response (AID 602208); format: functional
# [13] = molecular target: Nuclear receptor subfamily 5 group A member 2 (Homo sapiens, UniProt O00482); format: functional, cell-based;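 further: HEK293T cells transfected with LRH-1 and a StAR promoter luciferase reporter; potency for inhibitors that lower LRH-1 driven reporter light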
# Steroidogenic factor 1 = Steroidogenic factor 1 (Homo sapiens, UniProt Q13285); test: Counterscreen for inverse agonists of the liver receptor homolog-1 (LRH-1; NR5A2): Luminescence-based cell-based high throughput dose response assay to identify inverse agonists of the Steroidogenic Factor 1 Nuclear Receptor (SF1; NR5A1).; format: functional
# [14] = nonselective StAR promoter luciferase inhibitors – cell-based, luminescence, luciferase reporter, counter-screen for LRH-1 inverse agonist project, dose response (AID 651969); format: functional
# [15] = bead-based luminescence quenchers, dual-tagged ARNT – biochemical, AlphaScreen, cherry-pick, artefact control for ARNT-TACC3 interaction inhibitor project, dose response (AID 651705); format: functional;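 further: AlphaScreen bead proximity signal that flags compounds interfering with the detection technology; potency reflects signal decrease which marks the compound as an assay artifact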
# [16] = molecular target: Nucleotide-binding oligomerization domain-containing protein 2 (Homo sapiens, UniProt Q9HC29); test: inhibition of NOD2-driven NF-kB reporter – cell-based, luminescence, uHTS, HEK293 (AID 1566); format: functional
# HEK293 [17] = test: inhibition of NOD1-driven NF-kB reporter – cell-based, luminescence, uHTS, primary screen (AID 1578); format: functional; conditions: Homo sapiens
# [18] = loss of viability in HepG2 cells – cell-based, CellTiter-Glo, cherry-picked, cytotoxicity control for Shn3 inhibitor project, dose response (AID 624134); format: functional
# HEK293 [19] = test: cells; format: functional, cell-based; conditions: Homo sapiens
# HEK293 [20] = test: cells; format: functional, cell-based; conditions: Homo sapiens; remark: listed apart in the source
# Protein Wnt-3a = Protein Wnt-3a (Mus musculus, UniProt P27467); test: antagonism of Wnt3a pathway luciferase reporter – Wnt-LIGHT cells, luminescence, selectivity assay for Gli-SUFU antagonist project, dose response (AID 651570); format: functional; conditions: read-out: IC50_Mean;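 further: Wnt-LIGHT reporter cells stimulated with conditioned medium from Wnt3a-producing cells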
# HEK293 [21] = test: cells; format: functional, cell-based; conditions: Homo sapiens; remark: listed apart in the source
# [22] = non-specific 3'UTR reporter inhibition in Clone20-Shn3RL – cell-based, Renilla luciferase, cherry-picked, counter-screen for Shn3 inhibitor project, dose response (AID 624133); format: functional
# [23] = reduction of Shn3 3'UTR-driven luciferase in osteoblasts – cell-based, Clone20 osteoblasts, firefly luciferase, cherry-picked, dose response (AID 624132); format: functional;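 further: firefly luciferase luminescence from reporter carrying the Shn3 3'UTR in osteoblasts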
# [24] = molecular target: Long-chain-fatty-acid--AMP ligase FadD28 (Mycobacterium tuberculosis, UniProt P9WQ59); test: Fluorescence polarization aasay to screen for inhibitors that compete for the binding of FadD28 to a bisubstrate Measured in Biochemical System Using Plate Reader - 2147-01_Inhibitor_Dose_CherryPick_Activity.; format: functional, Mycobacterium tuberculosis H37Rv
# [25] = NIH-3T3 fibroblast cytotoxicity, dose response, cytotoxicity control, cell-based, fluorescence, Alamar Blue, secondary assay (AID 2327); format: functional;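 further: NIH-3T3 mouse fibroblasts cultured with fluconazole at 8 µg/mL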
# [26] = molecular target: Benomyl/methotrexate resistance protein (Candida albicans, UniProt P28873); test: Candida albicans Mdr1 pump inhibition curves – singleplex, Cherry Pick1 hits, dose response (AID 588608); format: functional
# [27] = HEK-293T viability loss after treatment – luminescence, T-cell screen hits, cytotoxicity control for TCR NF-kB inhibitor project, dose response (AID 489026); format: functional, cell-based;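 further: cells exposed to compound about 14 hours before the viability readout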
# [28] = viability of HCT116 lacking mutant beta-catenin – cell-based, human colon tumor, dose response (AID 1045); format: functional;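 further: HCT116 colon tumor cells with beta catenin knocked out; cells exposed to compound for 60 hours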
# [29] = viability of PTEN-deleted HCT116 cells – cell-based, HCT116 PTEN knockout, dose response (AID 1047); format: functional;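 further: HCT116 colon tumor cells with PTEN knocked out; cells exposed to compound for 60 hours before readout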
# INS1 = test: INS-1E survival protection against cytokine death – cell-based, luminescence, retest, dose response (AID 449756); format: functional; conditions: Rattus norvegicus;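 further: cell death triggered by IL-1 beta plus TNF-alpha plus IFN-gamma mixture; protective hits raise ATP signal compared with cytokine alone wells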
# [30] = molecular target: Fructose-bisphosphate aldolase (Mycobacterium tuberculosis, UniProt P9WQA3); test: Fluorescence-based biochemical high throughput dose response assay for inhibitors of the fructose-bisphosphate aldolase (FBA) of M. tuberculosis.; format: functional
# Melanocortin receptor 4 = Melanocortin receptor 4 (Homo sapiens, UniProt P32245); format: functional, cell-based;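 further: Cell-based assay with luminescence read-out, confirmatory dose-response testing for agonist activity of biased ligands at MC4R; human U2OS cells with tagged receptor and beta-arrestin; potency of agonists that increase receptor coupling to beta-arrestin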
# cells [31] = format: functional, cell-based
# cells [32] = format: functional, cell-based; remark: listed apart in the source
# [33] = molecular target: T4, Sentrin-specific protease 8 (Homo sapiens, UniProt Q96LD8); format: functional
# T4 sequence (Q96LD8 whole entry): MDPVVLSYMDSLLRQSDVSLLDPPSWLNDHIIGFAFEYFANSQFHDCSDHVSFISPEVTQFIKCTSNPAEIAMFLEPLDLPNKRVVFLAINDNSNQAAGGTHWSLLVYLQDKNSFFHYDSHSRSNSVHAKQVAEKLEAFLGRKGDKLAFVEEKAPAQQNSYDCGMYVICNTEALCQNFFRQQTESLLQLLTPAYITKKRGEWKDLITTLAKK
# [34] = molecular target: T4, Sentrin-specific protease 8; format: functional; remark: listed apart in the source
# CHO = CHO cell viability loss, potency – luminescence, cytotoxicity control for TLR9-MyD88 binding inhibitor project, dose response (AID 588339); format: functional, cell-based, hamster; conditions: Cricetulus griseus;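 further: CHO cells stably coexpressing TLR9 and MyD88 fusions from primary screen; compound exposure lasted 48 hours before viability readout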
# Beta Lactamase = Beta Lactamase (Pseudomonas aeruginosa, UniProt Q932Y6); test: BLA reporter interference, concentration series – BLA reporter cells, FRET fluorescence, artefact control for TLR9-MyD88 binding inhibitor project, dose response (AID 588341); format: cell-based;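 further: cell based assay in CHO-K1 cells stably expressing beta-lactamase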
# Chain of Beta Lactamase (Q932Y6 whole entry): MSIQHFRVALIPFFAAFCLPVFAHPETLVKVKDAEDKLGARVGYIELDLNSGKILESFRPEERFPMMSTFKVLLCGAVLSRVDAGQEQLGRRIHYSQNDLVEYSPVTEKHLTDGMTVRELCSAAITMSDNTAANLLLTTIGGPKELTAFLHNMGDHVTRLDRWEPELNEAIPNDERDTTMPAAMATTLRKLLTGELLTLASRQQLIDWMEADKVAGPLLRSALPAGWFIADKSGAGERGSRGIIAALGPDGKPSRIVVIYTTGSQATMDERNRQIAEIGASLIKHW
# Chain of Nuclear receptor subfamily 5 group A member 2 (O00482 whole entry): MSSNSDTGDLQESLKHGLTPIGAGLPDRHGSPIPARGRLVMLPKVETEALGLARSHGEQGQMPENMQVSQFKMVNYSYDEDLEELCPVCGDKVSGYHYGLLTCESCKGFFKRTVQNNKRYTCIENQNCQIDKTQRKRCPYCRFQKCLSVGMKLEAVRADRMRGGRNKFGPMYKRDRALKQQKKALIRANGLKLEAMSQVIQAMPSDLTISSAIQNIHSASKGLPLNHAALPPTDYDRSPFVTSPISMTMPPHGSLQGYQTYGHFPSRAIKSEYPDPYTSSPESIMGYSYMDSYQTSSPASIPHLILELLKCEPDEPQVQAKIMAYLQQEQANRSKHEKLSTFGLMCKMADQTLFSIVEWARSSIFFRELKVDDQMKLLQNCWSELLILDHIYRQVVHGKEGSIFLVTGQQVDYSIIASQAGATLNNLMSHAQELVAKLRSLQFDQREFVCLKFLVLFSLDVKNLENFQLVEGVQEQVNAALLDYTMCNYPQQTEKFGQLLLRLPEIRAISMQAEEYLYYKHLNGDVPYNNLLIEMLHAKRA
# Chain of Steroidogenic factor 1 (Q13285 whole entry): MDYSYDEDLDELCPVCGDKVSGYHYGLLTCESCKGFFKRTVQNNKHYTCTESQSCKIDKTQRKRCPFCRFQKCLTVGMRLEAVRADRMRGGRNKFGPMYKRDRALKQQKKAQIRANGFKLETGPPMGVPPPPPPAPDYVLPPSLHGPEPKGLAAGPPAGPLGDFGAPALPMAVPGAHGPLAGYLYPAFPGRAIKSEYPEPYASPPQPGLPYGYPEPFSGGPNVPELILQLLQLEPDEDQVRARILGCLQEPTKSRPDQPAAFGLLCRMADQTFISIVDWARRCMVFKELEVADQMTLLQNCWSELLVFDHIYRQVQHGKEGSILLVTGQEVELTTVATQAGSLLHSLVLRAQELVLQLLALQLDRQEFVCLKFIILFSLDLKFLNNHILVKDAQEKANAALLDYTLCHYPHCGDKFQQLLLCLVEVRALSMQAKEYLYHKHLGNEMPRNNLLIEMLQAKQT
# Chain of Protein Wnt-3a (P27467 whole entry): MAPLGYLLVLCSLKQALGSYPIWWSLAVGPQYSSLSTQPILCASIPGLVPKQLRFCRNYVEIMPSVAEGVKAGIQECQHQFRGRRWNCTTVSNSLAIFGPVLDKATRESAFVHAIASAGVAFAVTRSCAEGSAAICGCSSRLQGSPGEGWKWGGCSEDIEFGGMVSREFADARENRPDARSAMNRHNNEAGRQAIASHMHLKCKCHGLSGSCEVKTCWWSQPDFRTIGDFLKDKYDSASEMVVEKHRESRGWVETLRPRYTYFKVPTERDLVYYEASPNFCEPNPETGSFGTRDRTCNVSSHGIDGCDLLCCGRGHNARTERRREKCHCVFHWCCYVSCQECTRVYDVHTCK
# Chain of Melanocortin receptor 4 (P32245 whole entry): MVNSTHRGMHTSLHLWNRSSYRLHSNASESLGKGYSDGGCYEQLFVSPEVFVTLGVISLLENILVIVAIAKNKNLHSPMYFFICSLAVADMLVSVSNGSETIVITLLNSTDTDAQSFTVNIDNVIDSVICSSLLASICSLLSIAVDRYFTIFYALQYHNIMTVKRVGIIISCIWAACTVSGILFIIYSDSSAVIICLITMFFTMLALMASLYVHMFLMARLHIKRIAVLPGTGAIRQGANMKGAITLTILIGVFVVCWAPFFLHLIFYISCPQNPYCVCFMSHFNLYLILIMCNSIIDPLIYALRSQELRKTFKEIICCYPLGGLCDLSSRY
# Chain of Fructose-bisphosphate aldolase (P9WQA3 whole entry): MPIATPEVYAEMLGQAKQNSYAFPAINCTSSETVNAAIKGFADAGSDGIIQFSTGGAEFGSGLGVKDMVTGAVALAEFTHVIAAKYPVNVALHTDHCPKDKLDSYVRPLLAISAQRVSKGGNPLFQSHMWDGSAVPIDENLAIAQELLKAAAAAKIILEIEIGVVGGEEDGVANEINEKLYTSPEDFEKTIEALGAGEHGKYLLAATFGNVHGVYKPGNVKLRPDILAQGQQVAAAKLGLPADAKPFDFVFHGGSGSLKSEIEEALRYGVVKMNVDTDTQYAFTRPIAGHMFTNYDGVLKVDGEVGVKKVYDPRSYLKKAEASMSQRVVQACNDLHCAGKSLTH
# Chain of Long-chain-fatty-acid--AMP ligase FadD28 (P9WQ59 whole entry): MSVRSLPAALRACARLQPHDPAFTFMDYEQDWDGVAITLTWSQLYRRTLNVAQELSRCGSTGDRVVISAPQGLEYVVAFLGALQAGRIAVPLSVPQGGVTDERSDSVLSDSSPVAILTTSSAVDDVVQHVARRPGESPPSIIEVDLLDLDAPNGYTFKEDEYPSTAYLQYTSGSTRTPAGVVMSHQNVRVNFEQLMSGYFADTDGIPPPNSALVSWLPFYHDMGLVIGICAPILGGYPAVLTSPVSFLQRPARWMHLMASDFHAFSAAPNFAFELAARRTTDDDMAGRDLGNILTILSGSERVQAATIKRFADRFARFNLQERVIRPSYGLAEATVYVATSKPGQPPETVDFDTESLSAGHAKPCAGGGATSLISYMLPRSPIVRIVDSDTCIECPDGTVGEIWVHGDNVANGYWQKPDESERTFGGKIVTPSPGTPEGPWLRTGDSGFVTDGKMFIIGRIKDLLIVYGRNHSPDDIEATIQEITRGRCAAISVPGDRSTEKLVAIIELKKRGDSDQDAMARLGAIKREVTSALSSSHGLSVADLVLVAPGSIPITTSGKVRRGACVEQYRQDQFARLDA
# Chain of DNA repair and recombination protein RAD54-like (Q92698 whole entry): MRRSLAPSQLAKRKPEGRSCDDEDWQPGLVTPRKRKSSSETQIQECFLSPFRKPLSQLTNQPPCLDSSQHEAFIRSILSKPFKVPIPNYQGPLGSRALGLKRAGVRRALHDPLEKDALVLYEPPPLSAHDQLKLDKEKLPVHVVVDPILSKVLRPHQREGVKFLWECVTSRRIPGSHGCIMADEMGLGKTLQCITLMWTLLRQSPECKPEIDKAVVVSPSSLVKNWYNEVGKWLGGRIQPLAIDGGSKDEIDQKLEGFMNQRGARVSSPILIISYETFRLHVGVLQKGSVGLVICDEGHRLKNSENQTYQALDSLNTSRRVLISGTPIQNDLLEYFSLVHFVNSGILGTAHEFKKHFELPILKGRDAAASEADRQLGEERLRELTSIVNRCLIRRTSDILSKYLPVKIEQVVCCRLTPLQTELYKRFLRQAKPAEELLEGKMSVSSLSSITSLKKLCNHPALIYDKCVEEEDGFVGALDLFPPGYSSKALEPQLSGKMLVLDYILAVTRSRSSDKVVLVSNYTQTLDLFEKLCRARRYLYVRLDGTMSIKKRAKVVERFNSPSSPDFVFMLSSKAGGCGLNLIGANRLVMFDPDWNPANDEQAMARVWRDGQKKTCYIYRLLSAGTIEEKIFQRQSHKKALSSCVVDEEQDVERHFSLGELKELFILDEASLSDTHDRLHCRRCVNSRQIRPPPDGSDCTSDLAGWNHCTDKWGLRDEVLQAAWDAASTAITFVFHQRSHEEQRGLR
# Chain of Nucleotide-binding oligomerization domain-containing protein 2 (Q9HC29 whole entry, the tested form may be a part): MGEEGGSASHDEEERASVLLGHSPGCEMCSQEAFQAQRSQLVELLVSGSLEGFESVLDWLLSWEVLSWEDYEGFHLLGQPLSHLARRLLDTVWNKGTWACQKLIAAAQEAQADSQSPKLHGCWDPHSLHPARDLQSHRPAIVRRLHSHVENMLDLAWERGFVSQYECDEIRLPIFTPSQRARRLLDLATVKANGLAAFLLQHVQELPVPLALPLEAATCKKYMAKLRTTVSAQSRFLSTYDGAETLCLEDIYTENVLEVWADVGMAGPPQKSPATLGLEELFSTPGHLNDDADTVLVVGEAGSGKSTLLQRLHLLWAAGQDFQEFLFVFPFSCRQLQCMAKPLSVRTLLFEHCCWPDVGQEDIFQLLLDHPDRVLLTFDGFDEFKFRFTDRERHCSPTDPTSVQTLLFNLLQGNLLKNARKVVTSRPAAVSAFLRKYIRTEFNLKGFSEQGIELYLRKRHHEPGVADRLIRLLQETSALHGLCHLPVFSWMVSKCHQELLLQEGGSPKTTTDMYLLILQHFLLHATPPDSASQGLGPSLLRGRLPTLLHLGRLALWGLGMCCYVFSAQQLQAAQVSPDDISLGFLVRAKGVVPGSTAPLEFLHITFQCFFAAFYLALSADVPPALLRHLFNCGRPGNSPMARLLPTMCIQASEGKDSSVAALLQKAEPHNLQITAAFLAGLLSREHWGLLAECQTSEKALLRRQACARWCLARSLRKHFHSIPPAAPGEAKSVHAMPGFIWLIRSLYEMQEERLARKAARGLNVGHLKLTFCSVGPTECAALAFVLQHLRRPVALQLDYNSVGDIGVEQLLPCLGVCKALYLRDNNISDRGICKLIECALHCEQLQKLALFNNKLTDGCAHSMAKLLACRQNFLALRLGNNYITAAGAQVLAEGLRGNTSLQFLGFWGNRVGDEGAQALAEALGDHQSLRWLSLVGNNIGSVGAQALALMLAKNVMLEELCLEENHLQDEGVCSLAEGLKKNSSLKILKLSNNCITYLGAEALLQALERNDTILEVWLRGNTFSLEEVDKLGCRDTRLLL
structure (smiles),measurement,setting,value
COc1ccc(NC(=O)c2ccc(-c3ccc(-c4noc(C)n4)cc3C)cc2)cc1N1CCN(C)CC1,AC50,[1],22.7 µM (active)
same,AC50,[2],7.71 µM (active)
same,AC50,[3],14.5 µM (active)
same,AC50,[4],14.4 µM (active)
same,IC50,[5],> 20 µM (inactive)
same,AC50,[6],27.6 µM (active)
same,AC50,[7],79 µM (active)
same,AC50,[8],8.17 µM (active)
same,AC50,[9],8.08 µM (active)
O=C(Nc1ccc(S(=O)(=O)Nc2ccccn2)cc1)c1ccc(Cl)cc1Cl,IC50,[10],3.81 µM (active)
same,IC50,[11],4.17 µM (active)
same,IC50,[12],12.8 µM (active)
CCc1cc(CNC(=O)c2ccc(OC)c(OC3CCN(C(C)C)CC3)c2)on1,IC50,[10],0.597 µM (active)
same,IC50,[11],0.316 µM (active)
same,IC50,[12],0.0189 µM (active)
O=C(Nc1ccc(S(=O)(=O)N2CCOCC2)cc1)c1cccc([N+](=O)[O-])c1,IC50,[13],12 µM (inactive)
same,IC50,Steroidogenic factor 1,2.2 µM (active)
same,IC50,[14],35.9 µM (inactive)
CCN(CC)C(=O)c1sc2nc(-c3ccccn3)nc(O)c2c1C,AC50,[15],77.1 µM (active)
CC(=O)c1cn(Cc2ccccc2F)c2ccccc12,EC50,[16],4.05 µM (active)
same,EC50,HEK293 [17],2.96 µM (active)
same,AC50,[18],3.35 µM (active)
same,IC50,HEK293 [19],> 20 µM (inactive)
same,IC50,HEK293 [20],5 µM (active)
same,IC50,Protein Wnt-3a,0.491 µM (active)
same,IC50,HEK293 [21],> 20 µM (inactive)
same,AC50,[22],9.56 µM (active)
same,AC50,[23],2.96 µM (active)
COc1cccc(NC(=O)Cn2nnc(-c3ccccc3N)n2)c1,AC50,[24],66.6 µM (active)
C#CC[N+](C)(C)CCCCCCCCCCCC,EC50,[25],> 160 µM (inconclusive)
same,EC50,[26],0.312 µM (active)
same,IC50,[27],> 80 µM (inactive)
same,IC50,Protein Wnt-3a,0.279 µM (active)
same,EC50,[28],3.33 µM (active)
same,EC50,[29],2.9 µM (active)
same,AC50,INS1,4.61 µM (active)
COc1ccc(CCNC(=O)COC(=O)C23CC4CC(CC(Br)(C4)C2)C3)cc1,IC50,[13],16.6 µM (inactive)
same,IC50,Steroidogenic factor 1,4.45 µM (active)
same,IC50,[14],35.9 µM (inactive)
O=C(COC(=O)c1cccs1)Nc1nnc(-c2ccccc2)o1,AC50,[15],102 µM (active)
Cc1nn(C)cc1-c1cc(C(=O)O)c2ccccc2n1,IC50,[30],1.91 µM (active)
COc1cccc(-c2cnc3c(NC(C)=O)cc(-c4ccsc4)cn23)c1,EC50,Melanocortin receptor 4,26.2 µM (inactive)
O=C1CCC(=O)c2ccc3c4c(ccc1c24)CC3,IC50,[30],1.56 µM (active)
COc1ccc(/C=N/NC(=O)c2ccc(COc3ccccc3Cl)o2)c(OC)c1C,EC50,Melanocortin receptor 4,> 89.2 µM (inactive)
COC(=O)[C@]12C[C@H](CC(=O)NCCc3ccccc3OC)C(=O)N(Cc3ccc4c(c3)OCO4)C1=C[C@H](COCc1ccccc1)O[C@@H]2C,IC50,cells [31],> 29.9 µM (inactive)
same,EC50,cells [32],> 29.9 µM (inactive)
Cc1ccc(SCc2c(C(=O)N/N=C/c3ccoc3)nnn2-c2nonc2N)cc1,AC50,[24],> 100 µM (inactive)
O=C1Cc2ccccc2C(=O)N1c1ccccc1,IC50,[33],12.9 µM (active)
same,IC50,[34],> 100 µM (inactive)
same,IC50,CHO,> 49.7 µM (inactive)
same,IC50,Beta Lactamase,3.97 µM (active)
